From patent publication US20150257378A1, “PHEROMONE ATTRACTANTS FOR TAWNY CRAZY ANTS” (STERLING INTERNATIONAL INC., priority 2014, published 2015)

What was measured:
N. fulva workers = experiment: Field trapping experiments with baited sticky traps; assay type: in vivo, Nylanderia fulva; conditions: for attraction compared with blank control: Exp. 8, full factorial design, n-undecane 6-7 mg/day, 2-tridecanone 1 mg/day, formic acid 27-30 mg/d, three days
Description: Nine field trapping experiments were carried out in an old oak woodland with sandy soil and low grass understory at La Marque, Tex., USA (29° 21′23.73″N; 95° 0′9.47″W), using Terro® “Spider & Insect Traps” (sticky traps; Woodstream Corporation, Lititz, Pa.) or Rescue!® crawling insect sticky traps (described, for example in U.S. Application Publication No. 2013/0318860 A1, herein incorporated by reference in its entirety). All the tested dispensers were placed in the center of sticky surface on the bottom of the trap. An unbaited sticky trap was included in each experiment block for all the experiments as a blank control.
Experiments 1 and 2 were conducted simultaneously in summer. Exp. 1 tested two synthetic Dufour's gland pheromone candidate mixtures identified from N. fulva workers (treatment “A”: a mix of eight compounds at near natural ratios from workers: n-undecane, 2-tridecanone, n-decane, 1-undecene, n-tridecane, 2-dodecanone, 2-tetradecanone, 2-pentadecanone; 41:53:1.2:0.5:1:2:0.3:1) and queens (treatment “B”: a mix of four compounds at near natural ratios: n-undecane, 2-tridecanone, n-tridecane and 2-pentadecanone; 54:40:1:5) plus a synthetic binary blend of the two major components (undecane and 2-tridecanone at 50:50 ratio) identified from both workers and queens (treatment “C”) (Table in FIG. 3) using centrifuge tube dispensers with low loading (30 mg each mixture on a small cotton ball inside an open cap 2-ml centrifuge dispenser) at about 2 mg/day (mg/d) release in a randomized block design (6 blocks) using Terro® “Spider & Insect Traps”. Traps were placed on the ground in lines with 2 meters (m) between traps within each set, 3 m between trap sets. […] Experiment 2 was distanced about 15 m away from Exp. 1. The tawny crazy ant population level at the testing site was relatively high and ubiquitous throughout the landscape, as the tawny crazy ant population was actively foraging over the entire surface of the woodland understory and up every tree. The weather was sunny with a mean daily temperature of 28.6° C.
Experiments 3 and 4 were conducted simultaneously in the fall. Exp. 3 tested two synthetic Dufour's gland pheromone candidate mixtures mimicking the N. fulva workers (treatment “A”: a mix of eight compounds; 100 mg loading) and queens (treatment “B”: a mix of four compounds; 100 mg loading) using centrifuge dispensers (with one small cotton ball in each) with low release rate (ca. 2 mg/d), one positive control (treatment “C”: yellow plastic cap loaded with 1 g of Advance® Granular Carpenter Ant Bait, BASF Corporation, NJ, USA), plus a blank control (“D”), in a randomized block design (6 blocks/sets) using the Rescue!® crawling insect sticky traps. Same as in Exp. 1-2, the traps were placed were placed on the ground in lines with 2 m between traps within each set, 3 m between trap sets. […] Exp. 4 was distanced 20 m from Exp. 3. The weather was sunny with a mean daily temperature of 23.4° C. for days 1 and 2. On Day 3 the weather was overcast with a mean daily temperature of 25.3° C. and 0.97 cm of rainfall.
Experiments 5 and 6 were conducted simultaneously in late fall. Exp. 5 tested potential attraction of N. fulva workers to a synthetic mixture mimicking the full blend of N. fulva worker Dufour's gland pheromone (treatment “A”: a mix of eight compounds; 100 mg mixed with 400 μl canola oil (CO) from a stickpack dispenser; 8-12 mg/d), a synthetic pheromone candidate of N. fulva poison gland, formic acid (FA) (treatment “B”; 438 mg FA mixed with 812 mg of polyurethane inside an open 2-ml centrifuge tube; at 27-30 mg/d release) and their combination (treatment “C”) plus a blank control (“D”) in a randomized block design (6 blocks/sets) using the Rescue!® crawling insect sticky traps. Traps were again placed on the ground in lines with 2 m between traps within each set, 3 m between trap sets.

[1] = test system: workers of the red imported fire ants; conditions: contact/fumigation; cited from earlier work
L. humile workers = conditions: mixed in insecticide sprays; cited from earlier work
[2] = test system: Argentine ant (Linepithema humile) workers; conditions: mixed with the baits; cited from earlier work

Structure (SMILES)	attraction compared with blank control (N. fulva workers)	attraction of tawny crazy ant workers (N. fulva workers; Exp. 9, fall, n-undecane from stickpack at 9-11 mg/d)	toxicity to fire ant workers [1]	effect on killing efficacy of insecticides (L. humile workers)	effect on consumption of sugar-based liquid baits by ant workers [2]	significance of difference from blank control (N. fulva workers; Exp. 5, late fall, low temperature and rain)	N. fulva workers caught compared with blank control (in words) (N. fulva workers; Exp. 5, late fall, low temperature and rain, mix of 8 at 8-12 mg/d, formic acid at 27-30 mg/d)	attraction of N. fulva workers (N. fulva workers; Exp. 7, summer, high ant populations, mix of 8 at 8-12 mg/d, formic acid at 27-30 mg/d)
CCCCCCCCCCC [n-undecane]	significantly attractive	weakly, but significantly attractive	strong contact/fumigation toxicity	–	–	–	–	–
CCCCCC/C=C\CCCCCCCC=O [Z-9-hexadecenal]	–	–	–	increase the killing efficacy	increase the consumption	–	–	–
CCCCCCCCCCCC(C)=O [2-tridecanone]	not different from the blank control	–	strong contact/fumigation toxicity	–	–	–	–	–
O=CO [formic acid]	not different from the blank control	–	strong contact/fumigation toxicity	–	–	no significant differences	twice as many	inactive
